Experimental data as given in patent publication US11661418B2, “MASP-2 inhibitors and methods of use” (Omeros Corporation, priority 2019, dated 2023).

Biological target: MASP-2 (CCP1-CCP2-SP) (Homo sapiens (Human), UniProt O00187)
Experiment: Enzymatic Assay for MASP-2 (fluorogenic substrate)
Type: biochemical
Details: fluorogenic substrate based on C2 cleavage site; room temperature; 20 mM HEPES pH 7.4, 140 mM NaCl, 0.1% Tween 20; 20 min
Method: The MASP-2 assay utilizes a fluorogenic substrate, based on the cleavage site for its natural substrate C2. The assay is run at room temperature in an assay buffer containing 20 mM HEPES, pH 7.4, 140 mM NaCl and 0.1% Tween 20. Assay parameters are adjusted such that the assay is linear with respect to time, enzyme, and substrate concentrations. Under these optimized assays conditions, IC50 values are equivalent to Ki values, except in a few cases of “tight binding” inhibitors. Cases of “tight binding” or possible “slow binding” inhibitors are handled by the methods described in Copeland R.A. (2013) Evaluation of Enzyme Inhibitors in Drug Discovery. 2nd Ed., John Wiley and Sons, Inc., Chapters 5-7.
The MASP-2 assay protocol is carried out as follows. Test compounds are serially diluted in DMSO and then 100 nL of each dilution is transferred to the assay plate(s). 10 μL of Assay Buffer is added, followed by 15 μL of Enzyme MASP-2 (CCP1-CCP2-SP) in Assay Buffer. 15 μL of Substrate in Assay Buffer is then added and mixed to start the reactions. After 20 min at room temperature, 15 μL of a stop solution (0.1 M acetic acid) is added, mixed and the plates are read on a SpectraMax i3x Microplate Reader and exported as Excel files. Each assay plate included a “no inhibitor” (DMSO Only) control, a “no enzyme” control and a reference inhibitor control. % Activity values=100*(average test comp. fluorescence−average “no enzyme” fluorescence)/(average “DMSO only” fluorescence−average “no enzyme” fluorescence). IC50 and Ki values are very reproducible, falling well within 2-fold.

MASP-2 (CCP1-CCP2-SP), sequence (O00187 445-686): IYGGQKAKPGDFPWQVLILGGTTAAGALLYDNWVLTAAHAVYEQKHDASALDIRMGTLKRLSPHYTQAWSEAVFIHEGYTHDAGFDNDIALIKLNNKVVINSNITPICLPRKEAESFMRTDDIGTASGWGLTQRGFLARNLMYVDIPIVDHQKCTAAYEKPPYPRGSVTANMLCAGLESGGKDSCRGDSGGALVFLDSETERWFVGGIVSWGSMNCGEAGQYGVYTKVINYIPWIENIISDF
MASP-2 (CCP1-CCP2-SP), sequence (O00187 287-444 partner): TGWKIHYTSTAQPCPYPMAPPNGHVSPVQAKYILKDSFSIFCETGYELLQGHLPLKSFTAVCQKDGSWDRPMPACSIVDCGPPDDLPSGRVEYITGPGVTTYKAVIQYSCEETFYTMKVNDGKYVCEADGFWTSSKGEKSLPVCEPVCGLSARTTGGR

Structure (SMILES)	Ki
CCN1CC[C@H](c2ccccc2)C[C@@H]1C(=O)N[C@@H](C)C(=O)NCc1ccc(C(=N)N)cc1 [Compound I-21, (2R,4S)—N—((S)-1-((4-carbamimidoylbenzyl)amino)-1-OXOPROPAN-2-yl)-1-ethyl-4-phenylpiperidine-2-carboxamide]	< 500 nM
CCN1CC[C@H](c2ccccc2)C[C@@H]1C(=O)N[C@@H](C)C(=O)NCc1ccc(C(=N)NC(=O)OCc2ccccc2)cc1 [Compound I-20, benzyl ((4-(((S)-2-((2R,4S)-1-ethyl-4-phenylpiperidine-2-carboxamido)propanamido)methyl)phenyl)(imino)methyl)carbamate]	2500 to 10000 nM
Cc1nc(N)ccc1CNC(=O)[C@@H]1CCN1C(=O)[C@H]1C[C@@H](c2ccccc2)CCN1C [Compound I-16, (S)—N-((6-amino-2-methylpyridin-3-yl)methyl)-1-((2R,4S)-1-methyl-4-phenylpiperidine-2-carbonyl)azetidine-2-carboxamide]	< 500 nM
CN1CC[C@H](c2ccccc2)C[C@@H]1C(=O)N1CC[C@H]1C(=O)NCc1ccc(C(=N)N)cc1 [Compound I-17, (S)—N-(4-carbamimidoylbenzyl)-1-((2R,4S)-1-methyl-4-phenylpiperidine-2-carbonyl)azetidine-2-carboxamide]	< 500 nM
CCOC(=O)CCN1CC[C@H](c2ccccc2)C[C@@H]1C(=O)N[C@@H](C)C(=O)NCc1ccc(C(=N)N)cc1 [Compound I-13, ethyl 3-((2R,4S)-2-(((S)-1-((4-carbamimidoylbenzyl)amino)-1-oxopropan-2-yl)carbamoyl)-4-phenylpiperidin-1-yl)propanoate]	< 500 nM
CC(C)[C@H](N)C(=O)O/N=C(\N)c1ccc(CNC(=O)[C@H](C)NC(=O)[C@H]2C[C@@H](c3ccccc3)CCN2)cc1 [Compound I-7, (2R,4S)—N—((S)-1-((4-((Z)—N′-((L-valyl)oxy)carbamimidoyl)benzyl)amino)-1-oxopropan-2-yl)-4-phenylpiperidine-2-carboxamide]	< 500 nM
C[C@H](NC(=O)[C@H]1C[C@@H](c2ccccc2)CCN1CCP(=O)(O)O)C(=O)NCc1cc2cnccc2[nH]1 [Compound I-15, (2-((2R,4S)-2-(((S)-1-(((1H-pyrrolo[3,2-c]pyridin-2-yl)methyl)amino)-1-oxopropan-2-yl)carbamoyl)-4-phenylpiperidin-1-yl)ethyl)phosphonic acid]	< 500 nM
C[C@H](NC(=O)[C@H]1C[C@@H](c2ccccc2)CCN1)C(=O)NCc1ccc(/C(N)=N/O)cc1 [Compound I-31, (2R,4S)—N—((S)-1-((4-((Z)—N′-hydroxycarbamimidoyl)benzyl)amino)-1-oxopropan-2-yl)-4-phenylpiperidine-2-carboxamide]	500 to 2500 nM

Second part, the compound after the results:

Ki	Structure (SMILES)
< 500 nM	C[C@H](NC(=O)[C@H]1C[C@@H](c2ccccc2)CC[N+]1(C)C)C(=O)NCc1ccc(C(=N)N)cc1 [Compound I-10, (2R,4S)-2-(((S)-1-((4-carbamimidoylbenzyl)amino)-1-oxopropan-2-yl)carbamoyl)-1,1-dimethyl-4-phenylpiperidin-1-ium 2,2,2-trifluoroacetate]
< 500 nM	C[C@H](NC(=O)[C@H]1C[C@@H](c2ccccc2)CCN1CCC(=O)O)C(=O)NCc1ccc(C(=N)N)cc1 [Compound I-14, 3-((2R,4S)-2-(((S)-1-((4-carbamimidoylbenzyl)amino)-1-oxopropan-2-yl)carbamoyl)-4-phenylpiperidin-1-yl)propanoic acid]
< 500 nM	C[C@H](NC(=O)[C@H]1C[C@@H](c2ccccc2)CCN1)C(=O)NCc1ccc(/C(N)=N/O)s1 [Compound I-24, (2R,4S)—N—((S)-1-(((5-((Z)—N-hydroxycarbamimidoyl)thiophen-2-yl)methyl)amino)-1-oxopropan-2-yl)-4-phenylpiperidine-2-carboxamide]
< 500 nM	CCN1CC[C@H](c2cccc(-n3cccn3)c2)C[C@@H]1C(=O)N[C@@H](C)C(=O)NCc1cc(Cl)ccc1-n1cnnn1 [Compound I-22, (2R,4S)-4-(3-(1H-pyrazol-1-yl)phenyl)-N—((S)-1-((5-chloro-2-(1H-tetrazol-1-yl)benzyl)amino)-1-oxopropan-2-yl)-1-ethylpiperidine-2-carboxamide]
500 to 2500 nM	N=C(NC(=O)OCc1ccccc1)c1ccc(CNC(=O)[C@@H]2CCN2C(=O)[C@H]2C[C@@H](c3ccccc3)CCN2)cc1 [Compound I-19, benzyl (imino(4-(((S)-1-((2R,4S)-4-phenylpiperidine-2-carbonyl)azetidine-2-carboxamido)methyl)phenyl)methyl)carbamate]
